Assay results published in patent publication US8946426B2, “Substituted bicyclic heterocyclic compounds as gamma secretase modulators” (Janssen Pharmaceuticals, Inc., priority 2009, dated 2015).

Columns and labels:
Assay type in all cases: cell-based
Aβ42 [1] = assay: Method 1: Aβ42 sandwich ELISA in supernatant of SKNBE2 cells carrying APP 695-wild type (Tables 7a, 7b); conditions: Table 7b; averaged IC50; non-linear regression of percentage of control vs log concentration, 4-parameter equation
Description: (§1) Screening was carried out using SKNBE2 cells carrying the APP 695-wild type, grown in Dulbecco's Modified Eagle's Medium/Nutrient mixture F-12 (DMEM/NUT-mix F-12) (HAM) provided by Gibco (cat no. 31330-38) containing 5% Serum/Fe supplemented with 1% non-essential amino acids. Cells were grown to near confluency.
The screening was performed using the assay as described in Citron et al (1997) Nature Medicine 3: 67. Briefly, cells were plated in a 96-well plate at about 10^5 cells/ml one day prior to addition of compounds. Compounds were added to the cells in Ultraculture (Lonza, BE12-725F) supplemented with 1% glutamine (Invitrogen, 25030-024) for 18 Hours. The media were assayed by two sandwich ELISAs, for Aβ42 and Aβtotal. Toxicity of the compounds was assayed by WST-1 cell proliferation reagent (Roche, 1 644 807) according to the manufacturer's protocol.
To quantify the amount of Aβ42 in the cell supernatant, commercially available Enzyme-Linked-Immunosorbent-Assay (ELISA) kits were used (Innotest® β-Amyloid(1-42), Innogenetics N.V., Ghent, Belgium). The Aβ42 ELISA was performed essentially according to the manufacturer's protocol. Briefly, the standards (dilutions of synthetic Aβ1-42) were prepared in polypropylene Eppendorf with final concentrations of 8000 down to 3.9 pg/ml (½ dilution step). Samples, standards and blanks (100 μl) were added to the anti-Aβ42-coated plate supplied with the kit (the capture antibody selectively recognizes the C-terminal end of the antigen). The plate was allowed to incubate 3 H at 25° C. in order to allow formation of the antibody-amyloid complex. Following this incubation and subsequent wash steps a selective anti-Aβ-antibody conjugate (biotinylated 3D6) was added and incubated for a minimum of 1 Hour in order to allow formation of the antibody-Amyloid-antibody-complex. After incubation and appropriate wash steps, a Streptavidine-Peroxidase-Conjugate was added, followed 30 minutes later by an addition of 3,3′,5,5′-tetramethylbenzidine (TMB)/peroxide mixture, resulting in the conversion of the substrate into a coloured product. This reaction was stopped by the addition of sulfuric acid (0.9 N) and the colour intensity was measured by means of photometry with an ELISA-reader with a 450 nm filter.
To obtain the values reported in Table 7a, the sigmoidal dose response curves were analysed by computerised curve-fitting, with percent of inhibition plotted against compound concentration. A 4-parameter equation (model 205) in XLfit was used to determine the IC50. The top and the bottom of the curve were fixed to 100 and 0, respectively, and the hill slope was fixed to 1. The IC50 represents the concentration of a compound that is required for inhibiting a biological effect by 50% (Here, it is the concentration where Aβ peptide level is reduced by 50%).
(§2) To obtain the values reported in Table 7b, the data were calculated as percentage of the maximum amount of amyloid Beta 42 measured in the absence of the test compound. The sigmoidal dose response curves were analyzed using non-linear regression analysis with percentage of the control plotted against the log concentration of the compound. A 4-parameter equation was used to determine the IC50. The values reported in Table 7b are averaged IC50 values.

Aβ42 [2] = assay: Method 2: Aβ42 Alphalisa in supernatant of SKNBE2 cells carrying APP 695-wild type (Table 7c); conditions: Method 2, Alphalisa, overnight incubation
Description: as §1, with “Invitrogen” for “Gibco”, “10371-029)” for “31330-38)”, “acids, 1-glutamine 2 mM, Hepes 15 mM, penicillin 50 U/ml (units/ml) en streptomycin 50 μg/ml.” for “acids.”
(§3) The screening was performed using a modification of the assay as described in Citron et al (1997) Nature Medicine 3: 67. Briefly, cells were plated in a 384-well plate at 10^4 cells/well in Ultraculture (Lonza, BE12-725F) supplemented with 1% glutamine (Invitrogen, 25030-024), 1% non-essential amino acid (NEAA), penicillin 50 U/ml en streptomycin 50 μg/ml in the presence of test compound at different test concentrations. The cell/compound mixture was incubated overnight at 37° C., 5% CO2. The next day the media were assayed by two sandwich immuno-assays, for Aβ42 and Aβtotal.
(§4) Aβtotal and Aβ42 concentrations were quantified in the cell supernatant using the Aphalisa technology (Perkin Elmer). Alphalisa is a sandwich assay using biotinylated antibody attached to streptavidin coated donorbeads and antibody conjugated to acceptor beads. In the presence of antigen, the beads come into close proximity. The excitation of the donor beads provokes the release of singlet oxygen molecules that trigger a cascade of energy transfer in the acceptor beads, resulting in light emission. To quantify the amount of Aβ42 in the cell supernatant, monoclonal antibody specific to the C-terminus of Aβ42 (JRF/cAβ42/26) was coupled to the receptor beads and biotinylated antibody specific to the N-terminus of Aβ (JRF/AβN/25) was used to react with the donor beads. To quantify the amount of Aβtotal in the cell supernatant, monoclonal antibody specific to the N-terminus of Aβ (JRF/AβN/25) was coupled to the receptor beads and biotinylated antibody specific to the mid region of Aβ (biotinylated 4G8) was used to react with the donor beads.
as §2, with “7c,” for “7b,”, “IC50.” for “IC50. The values reported in Table 7b are averaged IC50 values.”

Aβtotal = assay: Method 2: Aβtotal Alphalisa in supernatant of SKNBE2 cells carrying APP 695-wild type (Table 7c); conditions: Method 2, Alphalisa, overnight incubation
Description: as §1, with “Invitrogen” for “Gibco”, “10371-029)” for “31330-38)”, “acids, 1-glutamine 2 mM, Hepes 15 mM, penicillin 50 U/ml (units/ml) en streptomycin 50 μg/ml.” for “acids.”
as §3, §4
as §2, with “7c,” for “7b,”, “IC50.” for “IC50. The values reported in Table 7b are averaged IC50 values.”

SMILES	IC50 (Aβ42 [1])	IC50 (Aβ42 [2])	IC50 (Aβtotal)	IC50 (Aβ42 [2]; Homo sapiens)	IC50 (Aβtotal; Homo sapiens)
Cc1ncc(-c2ccc(Nc3nccc4c3nc(CC3CC3)n4C)cc2F)o1 [Compound 66]	> 3 µM	> 10 µM	> 10 µM		
COc1nc(Nc2cccc3c2nc(-c2ccc(F)cc2)n3C)ccc1-c1cnn(C)c1 [Compound 68]		0.018 µM	> 10 µM		
COc1nc(Nc2cccc3c2nc(-c2ccc(F)cc2)n3C(C)C)ccc1-c1cnn(C)c1 [Compound 69]		0.022 µM	> 10 µM		
COc1cc(Nc2cccc3c2nc(-c2ccc(F)cc2)n3C)ccc1-c1cnn(C)n1 [Compound 73]		0.141 µM	5.62 µM		
COc1cc(Nc2cccc3c2nc(-c2ccc(F)cc2)n3C)ccc1-c1cn(C)nn1 [Compound 74]		7.41 µM	4.47 µM		
COc1cc(Nc2cccc3c2nc(-c2ccc(F)cc2)n3C(C)C)ccc1-c1oc(C)nc1C [Compound 80]		0.049 µM	> 10 µM		
Cc1nc(C)c(-c2ccc(Nc3cccc4c3nc(-c3ccc(F)cc3)n4C(C)C)cc2)o1 [Compound 81]		0.095 µM	> 10 µM		
COCc1ncc(-c2ccc(Nc3cccc4c3nc(-c3ccc(F)cc3)n4C(C)C)cc2)o1 [Compound 84]		0.112 µM	> 10 µM		
COc1cc(Nc2cccc3c2nc(C2CCOCC2)n3C(C)C)ccc1-c1cnc(C)o1 [Compound 93]	1.86 µM	2.75 µM	> 10 µM		
COc1cc(Nc2nc(C)cc3c2nc(-c2ccccc2Cl)n3C)ccc1-c1ocnc1C [Compound 113]		0.066 µM	4.9 µM		
Cc1ncoc1-c1ccc(Nc2cccc3c2nc(-c2ccc(Cl)s2)n3C(C)C)cn1 [Compound 116]		0.072 µM	> 10 µM		
COc1cc(Nc2nc(C)cc3c2nc(-c2ccc(F)cc2)n3C)ccc1-c1ocnc1C [Compound 125]	0.033 µM	0.195 µM	> 10 µM		
COc1cc(Nc2cc(C(F)(F)F)cc3c2nc(CCC(F)(F)F)n3C)ccc1-c1ocnc1C [Compound 126]	0.214 µM	0.741 µM			
COc1cc(Nc2nc(C)cc3c2nc(-c2ccc(F)cc2)n3C)ccc1-c1ccnc(C)c1 [Compound 127]		0.044 µM	3.63 µM		
COc1cc(Nc2cccc3c2nc(-c2ccc(F)cc2)n3C(C)C)ccc1-c1ccnc(C)c1 [Compound 128]				0.039 µM	9.12 µM
COc1nc(Nc2cccc3c2nc(-c2ccc(F)cc2)n3C)ccc1-c1ccnc(C)c1 [Compound 129]		0.017 µM	5.25 µM		
COc1nc(Nc2cccc3c2nc(-c2ccc(F)cc2)n3C(C)C)ccc1-c1ccnc(C)c1 [Compound 130]		0.03 µM	> 10 µM		
Cc1cc(-c2ccc(Nc3cccc4c3nc(-c3ccc(F)cc3)n4C(C)C)cc2)ccn1 [Compound 131]		0.028 µM	> 10 µM		
Cc1cc(-c2ccc(Nc3nc(C)cc4c3nc(-c3ccc(F)cc3)n4C)cc2)ccn1 [Compound 132]		0.123 µM	6.31 µM		
Cc1cc(-c2ccc(Nc3cccc4c3nc(-c3ccc(F)cc3)n4C)cc2F)ccn1 [Compound 133]		0.191 µM	> 10 µM		
Cc1cc(-c2ccc(Nc3cccc4c3nc(-c3ccc(F)cc3)n4C)nn2)ccn1 [Compound 135]		0.347 µM	> 10 µM		

SMILES	IC50 (Aβ42 [1])	IC50 (Aβ42 [2])	IC50 (Aβtotal)	IC50 (Aβ42 [2]; Homo sapiens)	IC50 (Aβtotal; Homo sapiens)
Cc1cc(-c2ccc(Nc3nc(C)cc4c3nc(-c3ccc(F)cc3)n4C)cc2F)ccn1 [Compound 136]		0.112 µM	> 10 µM		
Cc1cc(-c2ccc(Nc3cccc4c3nc(-c3ccc(F)cc3)n4C(C)C)cc2F)ccn1 [Compound 137]		0.117 µM	> 10 µM		
Cc1cc(-c2ccc(Nc3cccc4c3nc(-c3ccc(F)cc3)n4C)cc2)ccn1 [Compound 138]		0.049 µM	7.08 µM		
COc1cc(Nc2cccc3c2nc(-c2ccc(F)cc2)n3C)ccc1-c1ccnc(C)c1 [Compound 139]		0.06 µM	6.61 µM		
Cc1cc(-c2ccc(Nc3cccc4c3nc(-c3ccc(F)cc3)n4C(C)C)cc2)cc(C)n1 [Compound 140]		0.759 µM	> 10 µM		
COc1cc(Nc2cc(C#N)cn3cc(C)nc23)ccc1-c1ocnc1C [Compound 145]	0.166 µM	1.05 µM	6.31 µM		
COc1cc(Nc2cc(F)cn3cc(-c4ccc(F)cc4C)nc23)ccc1-c1ocnc1C [Compound 147]	0.085 µM	0.468 µM			
COc1cc(Nc2cc(C(C)=O)cn3cc(CC(C)C)nc23)ccc1-c1ocnc1C [Compound 156]				0.042 µM	8.91 µM
COc1cc(Nc2nccn3cc(C)nc23)ccc1-c1ocnc1C [Compound 158]		1.86 µM	> 10 µM		
COc1cc(Nc2cc(Cl)cn3cc(C4CCOCC4)nc23)ccc1-c1ocnc1C [Compound 159]		0.269 µM	> 10 µM		
COCc1c(-c2ccc(F)cc2)nc2c(Nc3ccc(-c4cnc(C)o4)c(OC)c3)cccn12 [Compound 168]		0.051 µM	> 10 µM		
Cc1cc(-c2ccc(Nc3cccn4c(C)c(-c5ccccc5Cl)nc34)cc2F)ccn1 [Compound 182]		0.162 µM	7.76 µM		
Cc1cc(-c2ccc(Nc3cccn4c(C)c(-c5ccccc5Cl)nc34)cc2)ccn1 [Compound 183]		0.083 µM	8.71 µM		
Cc1ncc(-c2ccc(Nc3ccnc4c3nc(-c3ccc(F)cc3)n4C)cc2F)o1 [Compound 187]		0.062 µM	> 10 µM		
Cc1ncc(-c2cnc(Nc3cccc4c3nc(-c3ccc(F)cc3)n4C)nc2)o1 [Compound 188]				> 10 µM	> 10 µM
COc1cc(Nc2cc(C#N)nc3c2nc(-c2ccc(F)cc2)n3C)ccc1-c1cnc(C)o1 [Compound 189]		2.4 µM	> 10 µM		
Cc1ncc(-c2ccc(Nc3cc(C(C)C)nc4c3nc(-c3ccc(F)cc3)n4C)cn2)o1 [Compound 191]		0.012 µM	> 10 µM		
COc1nc(Nc2cccn3c(C)c(-c4ccccc4Cl)nc23)ccc1-c1ccnc(C)c1 [Compound 194]		0.017 µM	~6.76 µM		
Cc1ccc(F)cc1-c1cn2nccc(Nc3ccc(-c4ocnc4C)nc3)c2n1 [Compound 197]				0.55 µM	> 10 µM
Cc1ccc(F)cc1-c1cn2nc(Cl)cc(Nc3ccc(-c4ocnc4C)nc3)c2n1 [Compound 198]		1.18 µM	6.76 µM		
COc1cc(Nc2cccn3c(C)c(-c4ccccc4Cl)nc23)ccc1-c1ccnc(C)c1 [Compound 201]		0.045 µM	> 10 µM		
